Measured values as given in patent publication US8362022B2, “Selective subtype alpha 2 adrenergic agents and methods for use thereof” (Allergan, Inc., priority 2008, dated 2013).
Where two headings read alike, the source gives them in different places.

Key:
Type in all cases: cell-based
alpha 2B receptor = target: T1, alpha 2B receptor (Homo sapiens, UniProt P18089); assay: RSAT assay (Receptor Selection and Amplification Technology), Alpha 2B; settings: for Intrinsic Activity efficacy Alpha 2B: value in parentheses, ratio of maximal effect to that of brimonidine
T1 construct: expressed in transfected cells; host or cells: NIH-3T3
T1 sequence (P18089 1-450): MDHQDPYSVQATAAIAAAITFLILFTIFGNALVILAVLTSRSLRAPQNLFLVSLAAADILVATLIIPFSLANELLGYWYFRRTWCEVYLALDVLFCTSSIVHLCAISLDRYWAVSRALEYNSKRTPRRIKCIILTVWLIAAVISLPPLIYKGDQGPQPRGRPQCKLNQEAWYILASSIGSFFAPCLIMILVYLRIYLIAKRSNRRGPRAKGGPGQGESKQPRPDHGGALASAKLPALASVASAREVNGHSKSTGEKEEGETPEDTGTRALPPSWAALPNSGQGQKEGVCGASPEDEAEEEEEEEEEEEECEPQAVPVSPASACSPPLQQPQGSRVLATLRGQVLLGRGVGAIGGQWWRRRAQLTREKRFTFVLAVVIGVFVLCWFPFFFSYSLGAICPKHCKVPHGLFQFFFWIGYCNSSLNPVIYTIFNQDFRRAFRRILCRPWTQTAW
Description: (§1) The RSAT assay measures a receptor-mediated loss of contact inhibition that results in selective proliferation of receptor-containing cells in a mixed population of confluent cells. The increase in cell number is assessed with an appropriate transfected marker gene such as β-galactosidase, the activity of which can be easily measured in a 96-well format. Receptors that activate the G protein, Gq, elicit this response. Alpha 2 receptors, which normally couple to Gi, activate the RSAT response when coexpressed with a hybrid Gq protein that has a Gi receptor recognition domain, called Gq/i5.
(§2) NIH-3T3 cells are plated at a density of 2×10^6 cells in 15 cm dishes and maintained in Dulbecco's modified Eagle's medium supplemented with 10% calf serum. One day later, cells are cotransfected by calcium phosphate precipitation with mammalian expression plasmids encoding p-SV-β-galactosidase (5-10 μg), receptor (1-2 μg) and G protein (1-2 μg). 40 μg salmon sperm DNA may also be included in the transfection mixture. […] Cells are thawed and 100 μl added to 100 μL aliquots of various concentrations of drugs in triplicate in 96-well dishes. Incubations continue 72-96 hr at 37° C. After washing with phosphate-buffered saline, β-galactosidase enzyme activity is determined by adding 200 μL of the chromogenic substrate (consisting of 3.5 mM o-nitrophenyl-β-D-galactopyranoside and 0.5% nonidet P-40 in phosphate buffered saline), incubating overnight at 30° C. and measuring optical density at 420 nm. The absorbance is a measure of enzyme activity, which depends on cell number and reflects a receptor-mediated cell proliferation. The efficacy or intrinsic activity is calculated as a ratio of the maximal effect of the drug to the maximal effect of a standard full agonist for each receptor subtype. Brimonidine, the chemical structure of which is shown below, is used as the standard agonist for the alpha 2B and alpha 2C receptors. […] NA stands for “not active” at concentrations less than 3-10 micromolar.

alpha 2C receptor = target: T2, alpha 2C receptor (Homo sapiens, UniProt P18825); assay: RSAT assay (Receptor Selection and Amplification Technology), Alpha 2C; settings: for Intrinsic Activity efficacy Alpha 2C: value in parentheses, ratio of maximal effect to that of brimonidine
T2 construct: expressed in transfected cells; host or cells: NIH-3T3
T2 sequence (P18825 1-462): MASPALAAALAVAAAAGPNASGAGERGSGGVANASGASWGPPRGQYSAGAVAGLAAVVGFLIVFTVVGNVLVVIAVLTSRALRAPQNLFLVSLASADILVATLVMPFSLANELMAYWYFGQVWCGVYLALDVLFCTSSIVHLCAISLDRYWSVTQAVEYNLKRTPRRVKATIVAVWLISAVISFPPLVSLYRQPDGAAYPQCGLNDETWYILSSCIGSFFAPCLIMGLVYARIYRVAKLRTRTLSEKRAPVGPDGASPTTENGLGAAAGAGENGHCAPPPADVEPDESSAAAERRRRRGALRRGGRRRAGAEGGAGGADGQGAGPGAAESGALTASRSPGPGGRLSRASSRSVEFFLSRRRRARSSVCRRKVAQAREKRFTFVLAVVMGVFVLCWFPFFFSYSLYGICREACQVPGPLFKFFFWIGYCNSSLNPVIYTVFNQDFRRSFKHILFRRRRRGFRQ
Description: as §1, §2

Alpha 1A = target: T3, Alpha 1A (Homo sapiens, UniProt P35348); assay: RSAT assay (Receptor Selection and Amplification Technology), Alpha 1A; settings: value in parentheses, ratio of maximal effect of drug to maximal effect of standard full agonist
T3 sequence (P35348 1-466): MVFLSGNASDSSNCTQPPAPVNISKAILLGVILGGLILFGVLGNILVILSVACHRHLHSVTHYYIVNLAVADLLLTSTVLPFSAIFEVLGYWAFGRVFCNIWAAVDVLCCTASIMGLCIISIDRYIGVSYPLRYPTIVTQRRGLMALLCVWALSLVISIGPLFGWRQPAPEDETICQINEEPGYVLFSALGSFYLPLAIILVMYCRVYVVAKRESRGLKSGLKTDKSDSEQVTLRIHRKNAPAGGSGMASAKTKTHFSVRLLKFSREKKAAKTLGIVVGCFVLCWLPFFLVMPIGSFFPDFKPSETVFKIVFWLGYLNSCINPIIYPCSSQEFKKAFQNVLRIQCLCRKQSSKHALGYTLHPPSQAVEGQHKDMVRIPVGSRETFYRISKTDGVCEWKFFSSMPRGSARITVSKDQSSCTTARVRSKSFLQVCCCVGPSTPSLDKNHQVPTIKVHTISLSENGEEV
Description: as §1, §2

[1] = RSAT, Table 2, read-out: Potency nM (EC50) Alpha 2B
[2] = RSAT, transfected NIH-3T3 cells with Gq/i5, NA = not active at concentrations less than 10 micromolar, read-out: potency nM (EC50) Alpha 2C
[3] = RSAT, transfected NIH-3T3 cells with Gq/i5, Table 1, read-out: potency nM (EC50) Alpha 2B

## c1ccc(C(Cc2cccnc2)NC2=NCCN2)cc1 (stereo not shown)
Alpha 2B receptor; [1]
  EC50: 16 nM
Alpha 2B receptor; RSAT, Table 2
  Intrinsic Activity efficacy Alpha 2B: 0.74

## Cc1cccc(C(Cc2ccccn2)NC2=NCCO2)c1C (stereo not shown)
Alpha 2B receptor; [1]
  EC50: 6.7 nM
Alpha 2B receptor; RSAT, Table 2
  Intrinsic Activity efficacy Alpha 2B: 0.93

## Clc1cccc(C(Cc2cccnc2Br)NC2=NCCO2)c1 (stereo not shown)
Alpha 2B receptor; [1]
  EC50: 1.3 nM
Alpha 2B receptor; RSAT, Table 2
  Intrinsic Activity efficacy Alpha 2B: 1.05

## Clc1cccc(C(Cc2cccnc2Cl)NC2=NCCO2)c1 (stereo not shown)
Alpha 2B receptor; [1]
  EC50: 0.48 nM
Alpha 2B receptor; RSAT, Table 2
  Intrinsic Activity efficacy Alpha 2B: 1.01

## Cc1cccc(C(Cc2cccnc2Cl)NC2=NCCO2)c1 (stereo not shown)
Alpha 2B receptor; [1]
  EC50: 0.06 nM
Alpha 2B receptor; RSAT, Table 2
  Intrinsic Activity efficacy Alpha 2B: 0.88

## Fc1cccc(C(Cc2cccnc2Cl)NC2=NCCO2)c1 (stereo not shown)
Alpha 2B receptor; [1]
  EC50: 0.09 nM
Alpha 2B receptor; RSAT, Table 2
  Intrinsic Activity efficacy Alpha 2B: 0.87

## Clc1ncccc1CC(NC1=NCCO1)c1cccc(Br)c1 (stereo not shown)
Alpha 2B receptor; [1]
  EC50: 0.14 nM
Alpha 2B receptor; RSAT, Table 2
  Intrinsic Activity efficacy Alpha 2B: 1.01

## Fc1ncccc1CC(NC1=NCCO1)c1cccc(Cl)c1 (stereo not shown)
Alpha 2B receptor; [1]
  EC50: 0.21 nM
Alpha 2B receptor; RSAT, Table 2
  Intrinsic Activity efficacy Alpha 2B: 0.81

## Cc1cncc(CC(NC2=NCCO2)c2cccc(Cl)c2)c1 (stereo not shown)
Alpha 2B receptor; [1]
  EC50: 4 nM
Alpha 2B receptor; RSAT, Table 2
  Intrinsic Activity efficacy Alpha 2B: 1.12

## Cc1cncc(CC(NC2=NCCO2)c2cccc(C)c2)c1 (stereo not shown)
Alpha 2B receptor; [1]
  EC50: 3 nM
Alpha 2B receptor; RSAT, Table 2
  Intrinsic Activity efficacy Alpha 2B: 1.1

## c1ccc(C(Cc2cccnc2)NC2=NCCO2)cc1 (stereo not shown)
Alpha 2B receptor
  EC50: 4.5 nM
Alpha 2B receptor; RSAT, Table 2
  Intrinsic Activity efficacy Alpha 2B: 0.76

## COc1cccc(C(Cc2cccnc2)NC2=NCCO2)c1 (stereo not shown)
Alpha 2B receptor; [1]
  EC50: 56 nM
Alpha 2B receptor; RSAT, Table 2
  Intrinsic Activity efficacy Alpha 2B: 0.65

## Clc1cccc(C(Cc2cccnc2)NC2=NCCO2)c1Cl (stereo not shown)
Alpha 2B receptor; [1]
  EC50: 5.6 nM
Alpha 2B receptor; RSAT, Table 2
  Intrinsic Activity efficacy Alpha 2B: 0.89

## Cc1cccc(C(Cc2cccnc2)NC2=NCCO2)c1 (stereo not shown)
Alpha 2B receptor; [1]
  EC50: 8.2 nM
Alpha 2B receptor; RSAT, Table 2
  Intrinsic Activity efficacy Alpha 2B: 1.24

## Cc1c(Br)cncc1CC(NC1=NCCO1)c1cccc(Cl)c1 (stereo not shown)
Alpha 2B receptor; [1]
  EC50: 1.9 nM
Alpha 2B receptor; RSAT, Table 2
  Intrinsic Activity efficacy Alpha 2B: 1.35

## Cc1cccc(C(Cc2cncc(Br)c2C)NC2=NCCO2)c1 (stereo not shown)
Alpha 2B receptor; [1]
  EC50: 2.7 nM
Alpha 2B receptor; RSAT, Table 2
  Intrinsic Activity efficacy Alpha 2B: 1.02

## Cc1cncc(CC(NC2=NCCO2)c2cccc(Cl)c2)c1C (stereo not shown)
Alpha 2B receptor; [1]
  EC50: 8.5 nM
Alpha 2B receptor; RSAT, Table 2
  Intrinsic Activity efficacy Alpha 2B: 0.9

## Cc1cccc(C(Cc2cncc(C)c2C)NC2=NCCO2)c1 (stereo not shown)
Alpha 2B receptor; [1]
  EC50: 3.9 nM
Alpha 2B receptor; RSAT, Table 2
  Intrinsic Activity efficacy Alpha 2B: 1.11

## Cc1c(Cl)cncc1CC(NC1=NCCO1)c1cccc(Cl)c1 (stereo not shown)
Alpha 2B receptor; [1]
  EC50: 5.6 nM
Alpha 2B receptor; RSAT, Table 2
  Intrinsic Activity efficacy Alpha 2B: 1.08

## c1ccc(C(Cc2ccncc2)/N=C2/NCCO2)cc1 (stereo not shown) [Compound 1, N-(Oxazolidin-2-ylidene)-1-phenyl-2-(pyridin-4-yl)ethanamine]
Alpha 2C receptor; [2]
  EC50: 132 nM
Alpha 2C receptor; RSAT
  Intrinsic Activity efficacy Alpha 2C: 0.67
Alpha 1A
  Intrinsic Activity efficacy Alpha 1A: 1.20
Alpha 2B receptor
  EC50: 8 nM
Alpha 2B receptor; RSAT, Table 1
  Intrinsic Activity efficacy Alpha 2B: 1.09

## c1ccc(C(Cc2ccncc2)/N=C2/NCCS2)cc1 (stereo not shown) [Compound 2, 1-Phenyl-2-(pyridin-4-yl)-N-(thiazolidin-2-ylidene)ethanamine]
Alpha 2C receptor; [2]
  EC50: 525 nM
Alpha 2C receptor; RSAT
  Intrinsic Activity efficacy Alpha 2C: 0.72
Alpha 1A
  Intrinsic Activity efficacy Alpha 1A: 1.45
Alpha 2B receptor; [3]
  EC50: 10 nM
Alpha 2B receptor; RSAT, Table 1
  Intrinsic Activity efficacy Alpha 2B: 1.18

## c1ccc(C(Cc2ccncc2)N=C2NCCN2)cc1 (stereo not shown) [Compound 3, N-(Imidazolidin-2-ylidene)-1-phenyl-2-(pyridin-4-yl)ethanamine]
Alpha 1A
  Intrinsic Activity efficacy Alpha 1A: 0.63

## Cc1cccc(C(Cc2ccncc2)/N=C2/NCCS2)c1C (stereo not shown) [Compound 4, 1-(2,3-Dimethylphenyl)-2-(pyridin-4-yl)-N-(thiazolidin-2-ylidene)ethanamine]
Alpha 2C receptor; [2]
  EC50: 14 nM
Alpha 2C receptor; RSAT
  Intrinsic Activity efficacy Alpha 2C: 0.63
Alpha 1A
  Intrinsic Activity efficacy Alpha 1A: 0.77
Alpha 2B receptor; [3]
  EC50: 3.8 nM
Alpha 2B receptor; RSAT, Table 1
  Intrinsic Activity efficacy Alpha 2B: 1.1

## Cc1cccc(C(Cc2ccncc2)N=C2NCCN2)c1C (stereo not shown) [Compound 5, 1-(2,3-Dimethylphenyl)-N-(imidazolidin-2-ylidene)-2-(pyridin-4-yl)ethanamine]
Alpha 2C receptor
  EC50: 8.4 nM
Alpha 2C receptor; RSAT
  Intrinsic Activity efficacy Alpha 2C: 0.49
Alpha 2B receptor
  EC50: 3.1 nM
Alpha 2B receptor; RSAT, Table 1
  Intrinsic Activity efficacy Alpha 2B: 1.15

## Clc1cccc(C(Cc2ccncc2)/N=C2/NCCO2)c1 (stereo not shown) [Compound 8, 1-(3-Chlorophenyl)-N-(oxazolidin-2-ylidene)-2-(pyridin-4-yl)ethanamine]
Alpha 1A
  Intrinsic Activity efficacy Alpha 1A: 1.4

## COc1ccccc1C(Cc1ccncc1)N=C1NCCN1 (stereo not shown) [Compound 10, N-(Imidazolidin-2-ylidene)-1-(2-methoxyphenyl)-2-(pyridin-4-yl)ethanamine]
Alpha 1A
  Intrinsic Activity efficacy Alpha 1A: 1.0

## c1ccc(C(Cc2cnccn2)/N=C2/NCCO2)cc1 (stereo not shown) [Compound 14, N-(Oxazolidin-2-ylidene)-1-phenyl-2-(pyrazin-2-yl)ethanamine]
Alpha 1A
  Intrinsic Activity efficacy Alpha 1A: 1.19
Alpha 2B receptor; [3]
  EC50: 132 nM
Alpha 2B receptor; RSAT, Table 1
  Intrinsic Activity efficacy Alpha 2B: 1.0

## c1ccc(C(Cc2cnccn2)N=C2NCCN2)cc1 (stereo not shown) [Compound 15, N-(Imidazolidin-2-ylidene)-1-phenyl-2-(pyrazin-2-yl)ethanamine]
Alpha 1A
  Intrinsic Activity efficacy Alpha 1A: 0.72
Alpha 2B receptor; [3]
  EC50: 198 nM
Alpha 2B receptor; RSAT, Table 1
  Intrinsic Activity efficacy Alpha 2B: 0.84

## Fc1c(Cl)cccc1C(Cc1ccncc1)/N=C1/NCCO1 (stereo not shown) [Compound 19, 1-(3-Chloro-2-fluorophenyl)-N-(oxazolidin-2-ylidene)-2-(pyridin-4-yl)ethanamine]
Alpha 1A
  Intrinsic Activity efficacy Alpha 1A: 1.27

## Fc1c(Cl)cccc1C(Cc1ccncc1)N=C1NCCN1 (stereo not shown) [Compound 20, 1-(3-Chloro-2-fluorophenyl)-N-(imidazolidin-2-ylidene)-2-(pyridin-4-yl)ethanamine]
Alpha 1A
  Intrinsic Activity efficacy Alpha 1A: 0.6

## Cc1cccc(C(Cc2cccnc2)/N=C2/NCCS2)c1C (stereo not shown) [Compound 22, 1-(2,3-Dimethylphenyl)-2-(pyridin-3-yl)-N-(thiazolidin-2-ylidene)ethanamine]
Alpha 1A
  Intrinsic Activity efficacy Alpha 1A: 0.7

## Fc1cccc(C(Cc2ccncc2)/N=C2/NCCS2)c1 (stereo not shown) [Compound 23, 1-(3-Fluorophenyl)-2-(pyridin-4-yl)-N-(thiazolidin-2-ylidene)ethanamine]
Alpha 1A
  Intrinsic Activity efficacy Alpha 1A: 1.36

## c1ccc([C@@H](Cc2ccncc2)N=C2NCCN2)cc1 [Compound 29, R—N-(imidazolidin-2-ylidene)-1-phenyl-2-(pyridin-4-yl)ethanamine]
Alpha 2C receptor; [2]
  EC50: 96 nM
Alpha 2C receptor; RSAT
  Intrinsic Activity efficacy Alpha 2C: 0.60
Alpha 1A
  Intrinsic Activity efficacy Alpha 1A: 0.60

## Clc1cccc(C(Cc2ccncc2)N=C2NCCN2)c1Cl (stereo not shown) [Compound 32, 1-(2,3-Dichlorophenyl)-N-(imidazolidin-2-ylidene)-2-(pyridin-4-yl)ethanamine]
Alpha 1A
  Intrinsic Activity efficacy Alpha 1A: 0.52
Alpha 2B receptor; [3]
  EC50: 1 nM
Alpha 2B receptor; RSAT, Table 1
  Intrinsic Activity efficacy Alpha 2B: 1.3
